Columns and labels:
[1] = test system: myointimal thickening; settings: cell culture or animals after arterial injury; cited from earlier work
[2] = test system: SMC cell surfaces; settings: cited from earlier work
[3] = molecular target: thrombin (Homo sapiens, UniProt P00734+P01008); test: Thrombin inhibition (fibrin generation in diluted human plasma); format: biochemical; settings: 0.5 nM thrombin; conjugate on ghosts (@1.43×10^7 ghosts/200 ul)
Procedure: The concentration response for unconjugated anti-coagulant is provided for comparison. Percentage inhibition of thrombin response (y-axis) is recorded as a function of the molar concentration of compound tested (lower x-axis; log scale), and of the number of carrier cells per test sample (upper x-axis; log scale).
To determine whether the anticoagulative properties of the compounds of the invention were retained when coated on the surface of biomembranes, in vitro studies were performed to assess the ability of the compound of invention to inhibit the coagulation enzyme, thrombin. […] Concentration of compound 21 on ghosts was assessed by placing known numbers of ghosts in microtiter plate wells and comparing the observed fluorescence to the fluorescence produced by known standard concentrations of the compound. […] 211:10 (1987), wherein 100 μl a 1:10 dilution of human plasma in phosphate buffered saline (PBS) buffer, 50 μl of PBS containing varying concentrations of labeled ghosts or standard thrombin inhibitor, and 50 μl of PBS containing a constant amount (0.5 nM) of thrombin were added to microtiter plate wells and absorbance changes at 405 nm were recorded in a spectrophotometric plate reader (Bio-Tek) over a 60 minute period. […] The absorbance changes over time data were plotted and area-under-the-curve measurements performed by computer. […]

[4] = test system: vascular smooth muscle cells (SMC); settings: cited from earlier work
[5] = test system: erythrocyte membrane ghosts; test: Relative membrane retention in erythrocyte membrane ghosts (iodination study); format: binding; settings: 24 hours, 37° C., PBS+EDTA+5% BSA
Procedure: Relative membrane retention was determined using erythrocyte membrane ghosts prepared by NH4 Cl lysis (Slezak and Horan, Blood, supra). Ghosts were labeled at 4×10^8 /ml with 10 μM compounds for 5 minutes at room temperature, using previously described procedures. However, post-labeling washes were carried out using PBS containing 1 mM EDTA and 5% BSA. After the final wash, ghosts were resuspended at 4×10^8 /ml in PBS+EDTA+5% BSA and incubated for 24 hours at 37° C. At 24 hours, duplicate 50 μl aliquots were withdrawn from a) the well mixed suspension of ghosts (for determination of total compound present), and b) the supernatant remaining after ghosts were pelleted for 15 minutes at 12,500×g (for determination of unbound compound present). Aliquots were extracted by admixture with 200 μl of 100% ethanol and fluorescence intensity of each extract measured using the Fluoroskan II fluorescence microplate reader. Percent compound retained was calculated as
total compound--unbound compound×100/total compound

[6] = test system: cells (red cell membranes); test: Number of molecules of compound incorporated per cell; format: cell-based; settings: 10 μM compounds
Procedure: Number of molecules of compound incorporated per cell was determined for cells labeled with 10 μM compounds. An aliquot of 10^6 cells (10 ul) was withdrawn from the washed cells after final resuspension and counting, compounds were extracted from the cell membrane by admixture with 250 μl of 100% ethanol, and the fluorescence intensity of 200 μl of the extract was measured using a Fluoroskan II fluorescence microplate reader and filter combination. Concentration of compound in each extract was determined from a calibration curve of known compound concentrations made up in 100% ethanol and measured on the Fluoroskan II. Number of molecules of compound per cell was then calculated from the known extract concentration, total volume of extract, and known number of cells extracted. Calculated values were (4.0±0.4)×10^6 for compound T (1.3±0.2)×10^6 for compound AA and (2.5±0.7)×10^6 for compound AB.

[7] = test system: membrane ghosts; test: Membrane binding stability (MBS) assay in membrane ghosts with 5% albumin; settings: 24 hours
Method in brief: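 Labeled membrane ghosts were suspended at decreasing numbers in a fixed volume of saline with 5% serum albumin. After 24 hours, label released into the supernatant after pelleting was expressed as percent of total. MBS is the area under the percent-retention versus ghosts/ml curve between 5×10^7 and 4×10^8 ghosts/ml.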

[8] = test system: synovial cells; test: Synovial distribution after intra-articular injection; format: in vivo; settings: 1 hour after injection into the knee, 10 μM
Procedure: To estimate the homogeneity or heterogeneity of incorporation by synovial cells after intra-articular injection, approximately 0.1 mL of a 10 μM solution of an iodide salt of compound T (see Example 2, above) in 300 mOsM pH 7.0 glucose was injected into the knee as described in Example 10. After 1 hour, the animal was sacrificed, and both injected and uninjected knee joints were dissected. Preparation of whole joint cross sections was not feasible because demineralization is required to cut thin sections and demineralizing solvents remove compounds of the invention from tissue. Therefore the infrapatellar fat pads which underlie the kneecap and form one boundary of the synovial cavity were carefully removed, snap frozen on dry ice, and stored at -80° until frozen sections could be prepared. Thick (10μ) cryostat sections were cut, adhered to glass slide, and evaluated by light and fluorescence microscopy.
(The synovial layer is only 1-2 cells thick in a normal joint but becomes thickened due to hyperproliferation in an arthritic joint.) The rest of the tissue was composed primarily of large fat cells.

[9] = In vivo loss of dye from labeled, reinjected erythrocytes; settings: rabbit, iv
Description: *Half life for loss of dye from rabbit erythrocytes after labeling and

[10] = test system: red blood cell ghosts (plasma membrane); test: Membrane retention coefficient (MRC) in red blood cell ghosts; format: binding; settings: 24 hr; Table II
Procedure: Determination of Membrane Retention Coefficient
The membrane retention coefficient (MRC) provides information regarding how well a given compound is retained in the plasma membrane of a cell and is determined as described below.
Generation of red blood cell ghosts for use as a model membrane is achieved by centrifuging whole blood at 300×g for 15 minutes, removal of the plasma and resuspension of the cell pellet in 0.83% (w/v) ammonium chloride. The ghosts are pelleted from the ammonium chloride by centrifuging at 10,000×g for 10 minutes. This ammonium chloride washing procedure is repeated a minimum of five times to insure that complete release of hemoglobin from the cells has occured. The ghosts are labeled with the compound in question at a concentration allowing for detection of the labeled ghosts by instrumental analysis or fluorescent microscopic methods, and at a concentration similar to those that would be used to label cells for a specific application as described above. For the determinations hereinbelow stock solutions of the compounds in question were prepared in ethanol at a molar concentration of 2×10^-3, and working dilutions of the compounds were prepared in iso-osmotic sucrose (52 g/500 ml distilled water). After incubation of the ghosts at an approximate concentration of 1×10^9 ghosts/ml in the working dilutions of the compounds for 10 minutes, the samples were centrifuged at 10,000×g to pellet the ghosts and the staining solution was aspirated from the samples. The labeled ghosts were resuspended in 1 ml of phosphate buffered saline solution containing 10% fetal bovine serum (PBS-FBS). Triplicate 20 ul aliquots were removed from each sample for the determination of the amount of total compound present. The samples were centrifuged as described above and triplicate 20 ul aliquots were removed from the supernatant for quantitative determination of amount of unbound compound present.
After sampling, the supernatant was aspirated and the red cell ghost pellet was resuspended in 1.0 ml of the PBS-FBS, which was once again sampled as described above. This procedure was repeated at least six times, allowing for detection of rapidly released compounds and was monitored after times equal to or greater than 24 hours to allow for the detection of more slowly released compounds. For the determination of the amount of compound present in each sample, the 20 ul aliquots were extracted into 3.0 ml of n-butanol by shaking. The samples were centrifuged at 3000×g to remove membrane debris and the butanol fractions were assayed for compound concentration. Fluorescent compounds are assayed in this manner using peak excitation and emission wave lengths for the particular compounds being assayed to determine the fluorescence units for each sample.
The determination of the amount of compound present in each sample as described above allows for the calculation of the MRC for each washing or fixed time point. The value is obtained by the following formula: […]
wherein CT represents the amount of compound present (in units determined by the method used to assay the compound) in the total sample and CS represents the amount of compound present in the supernatant sample for that particular time point. The comparison of the MRC values defines criteria for identification of the compounds of this invention, these criteria being: 1) the MRC values determined for each washing steps should have a value of at least about 90 and 2) the percent difference between MRC values over at least a 24 hour time period should be less than about 10%. [drawing 14]
The data provided in Table I below are the results from one experiment and serve as an example of the MRC determination. […]

Sequence of thrombin (P01008 33-464, one chain of several): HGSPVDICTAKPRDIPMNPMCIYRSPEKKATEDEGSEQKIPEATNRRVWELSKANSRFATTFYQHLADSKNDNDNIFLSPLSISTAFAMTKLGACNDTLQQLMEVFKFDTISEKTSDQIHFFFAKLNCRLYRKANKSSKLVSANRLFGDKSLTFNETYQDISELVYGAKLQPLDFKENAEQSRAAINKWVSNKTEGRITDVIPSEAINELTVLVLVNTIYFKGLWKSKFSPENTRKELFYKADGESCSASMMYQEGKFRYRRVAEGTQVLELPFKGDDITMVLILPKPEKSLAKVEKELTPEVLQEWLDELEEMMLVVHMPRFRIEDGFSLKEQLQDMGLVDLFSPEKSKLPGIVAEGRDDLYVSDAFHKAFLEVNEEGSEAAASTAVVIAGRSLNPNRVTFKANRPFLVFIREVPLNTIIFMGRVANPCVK

Compound | Effect of heparin on smooth muscle cells / after arterial injury [1] | Binding to SMC cell surfaces [2] | EC50 [3] | Inhibition of cell growth / antiproliferative activity [4] | Percent compound retained [5] | Number of molecules of compound incorporated per cell [6] | MBS (% of max.) ([7]; Table II) | MBS ([7]; Table III) | Labeling of infrapatellar fat pad cross sections [8] | half-life [9] | MRC# (at 24 hr.) [10]
Heparin | decreased growth and reduced myointimal thickening and cell proliferation | binds to SMC cell surfaces via high affinity binding sites and is taken up intracellularly | 1.03 nM | inhibit the growth of several different cell types, including vascular smooth muscle cells (SMC) | – | – | – | – | – | – | –
CCCCCCCCCCCCCCCCCCCCCCN1C(=CC=CC2=[N+](CCCCCCCCCCCCCC)c3ccccc3C2(C)C)C(C)(C)c2ccccc21 [T] | – | – | – | – | 91.9±2.9% | (4.0±0.4)×10^6 molecules of compound per cell | 85 ± 1.7 % of max. | 85 ± 1.7% | bright and relatively homogeneous labeling was essentially confined to the synovial cell layer | 130 days | 97 ± 0.1

Reference: patent US5667764A, “Compounds, compositions and methods for binding bio-affecting substances to surface membranes of bio-particles” (Zynaxis, Inc., priority 1992, dated 1997)
